The target in one assay is T1, HIV protease (Human immunodeficiency virus type 1 group M subtype B, UniProt P04585).
T1 construct: Jurkat T cells were transfected with 1 μg of pEYFP-protease per 10^7 cells; EYFP; expressed in transfected cells; host or cells: Jurkat T cells
Nature of the assay: casp8p41 production in Jurkat T cells transfected with HIV protease, flow cytometry. The conditions noted are these: Jurkat T cells transfected with pEYFP-protease; 7 μM Nelfinavir or 20 μM Z-VAD-fmk added immediately following transfection; assessed the following morning. In kind it is cell-based. The method, then:
To determine whether casp8p41 is produced specifically as a consequence of HIV-PR activity, as opposed to being produced as a consequence of apoptotic processing of procaspase 8, casp8p41 expression was assessed following HIV-PR transfection in the presence or absence of HIV-PR inhibitor, Nelfinavir, or the pan-caspase inhibitor, z-VAD-fmk. Jurkat T cells were transfected with 1 μg of pEYFP-protease per 10^7 cells using a square wave electroporator (BTX) at 320 V for 10 msec. Immediately following transfection, 7 μM Nelfinavir or 20 μM Z-VAD-fmk was added. The following morning, casp8p41 was assessed by flow cytometry.
(In general: Flow cytometry measures light scatter and fluorescence of single cells or particles in a stream.)

A further assay relates to Jurkat T cells. Nature of the assay: active caspase-3 and casp8p41 in Jurkat T cells treated with apoptotic stimuli, flow cytometry. In kind it is cell-based. The conditions noted are these: for casp8p41 immunoreactivity: same stimuli, 10 μM campothecin for 8 hours; for apoptosis, as determined by activation of caspase-3: 50 ng/mL TNF-α plus 5 μg/mL cycloheximide, 100 ng/mL SuperKillerTRAIL, 250 ng/mL anti-Fas CH-11, 2 μM Tat, 1 μg/mL gp120 for 8 hours, 10 μM Vpr-derived peptide 4 hours. The method, then: It was determined whether casp8p41 is generated in response to other apoptotic stimuli. Jurkat T cells (10^6) were treated with 10 μM campothecin, 100 ng/mL SuperKillerTRAIL™ (Axxora), 250 ng/mL anti-Fas antibody CH-11 (Upstate Cell Signaling Solutions), 50 ng/mL TNF-α (R&D Systems) plus 5 μg/mL cycloheximide, 2 μM HIV Tat (NIH AIDS Research and Reference Reagent Program), 1 μg/mL of HIV gp120 (ImmunoDiagnostic), or vehicle controls for 8 hours at 37° C. For Vpr-induced apoptosis, Jurkat T cells were incubated with isotonic glucose-Hepes buffer (2.4% glucose, 13 mM Hepes, 68 mM NaCl, 1.3 mM KCl, 4 mM Na2HPO4, and 0.7 mM KH2PO4, pH 7.2) alone or containing 10 μM of Vpr-derived peptide (amino acids 61-75; NIH AIDS Research and Reference Reagent Program) for 4 hours at 37° C. After the incubation, cells were washed in PBS and incubated overnight at 37° C. After incubation for the indicated times, cells were fixed in 2% paraformaldehyde at 4° C. overnight. To determine the presence of casp8p41 on apoptotic cells, cells were permeabilized with PBS+0.1% NP-40 on ice for two minutes. Cells were then incubated with the mouse anti-casp8p41 antibody, followed by PE-labeled goat anti-mouse antibody (Becton Dickinson ImmunoCytochemistry) and FITC-labeled rabbit anti-active caspase-3 antibody.

Take `Cc1c(O)cccc1C(=O)N[C@@H](CSc1ccccc1)[C@H](O)CN1C[C@H]2CCCC[C@H]2C[C@H]1C(=O)NC(C)(C)C` [Nelfinavir]: the casp8p41 production entry on HIV protease is “abrogated casp8p41 production”.

For the compound `CC[C@@]1(O)C(=O)OCc2c1cc1n(c2=O)Cc2cc3ccccc3nc2-1` [campothecin], in the assay on Jurkat T cells, the casp8p41 immunoreactivity entry was “casp8p41 was not produced”.

As to TNF-α, in the assay on Jurkat T cells, the “apoptosis, as determined by activation of caspase-3” value is reported as “did indeed induce apoptosis” and the casp8p41 immunoreactivity entry is “did not generate casp8p41 immunoreactivity”.

As for TRAIL, in the assay with Jurkat T cells, the “apoptosis, as determined by activation of caspase-3” value is given as “did indeed induce apoptosis” and the casp8p41 immunoreactivity result was “did not generate casp8p41 immunoreactivity”.

Turning to Z-VAD-fmk, on HIV protease, the casp8p41 production result was “did not alter casp8p41 production”.

The values are drawn from patent US20100062462A1, “IMMUNODEFICIENCY VIRUSES” (priority 2005, published 2010).
